In ChEMBL document CHEMBL2429775, “The cytotoxicity of 8-O-4' neolignans from the seeds of Crataegus pinnatifida” (Bioorg Med Chem Lett, 2013):

Key:
[1] = test system: HeLa; assay: Growth inhibition against human HeLa cells after 48 hrs by MTT assay; format: functional, cell-based
[2] = test system: HL-60; assay: Growth inhibition against human HL60 cells after 48 hrs by MTT assay; format: functional, cell-based; conditions: for IC50: HL-60, 48 h
[3] = test system: A549; assay: Growth inhibition against human A549 cells after 48 hrs by MTT assay; format: functional, cell-based; conditions: for IC50: A549, 48 h
[4] = test system: MRC5; assay: Growth inhibition against human MRC5 cells after 48 hrs by MTT assay; format: cell-based; conditions: for IC50: Homo sapiens, MRC5, 48 h; for growth inhibition (GI): human, mrc5, 48 h
[5] = test system: MCF7; assay: Growth inhibition against human MCF7 cells after 48 hrs by MTT assay; format: functional, cell-based; conditions: for IC50: MCF7, 48 h
[6] = test system: U-937; assay: Growth inhibition against human U937 cells after 48 hrs by MTT assay; format: functional, cell-based; conditions: for IC50: U-937, 48 h
[7] = test system: HepG2; assay: Growth inhibition against human HepG2 cells after 48 hrs by MTT assay; format: functional, cell-based; conditions: for IC50: HepG2, 48 h
[8] = test system: HT-1080; assay: Growth inhibition against human HT1080 cells after 48 hrs by MTT assay; format: functional, cell-based; conditions: for IC50: HT-1080, 48 h
[9] = test system: HCT-116; assay: Growth inhibition against human HCT116 cells after 48 hrs by MTT assay; format: functional, cell-based; conditions: for IC50: HCT-116, 48 h
[10] = test system: A375-S2; assay: (§1) Growth inhibition against human A375-S2 cells after 48 hrs by MTT assay; format: functional, cell-based
[11] = as §1; format: functional, cell-based; conditions: A375-S2, 48 h
[12] = test system: K562; assay: Growth inhibition against human K562 cells after 48 hrs by MTT assay; format: functional, cell-based; conditions: for IC50: K562, 48 h

SMILES	IC50 [1] [µM]	growth inhibition (GI) [1]	growth inhibition (GI) [2]	IC50 [2] [µM]	growth inhibition (GI) [3]	IC50 [3] [µM]	IC50 [4] [µM]	growth inhibition (GI) [4]	growth inhibition (GI) [5]	IC50 [5] [µM]	growth inhibition (GI) [6]	IC50 [6] [µM]	growth inhibition (GI) [7]	IC50 [7] [µM]	growth inhibition (GI) [8]	IC50 [8] [µM]	growth inhibition (GI) [9]	IC50 [9] [µM]	growth inhibition (GI) [10]	growth inhibition (GI) [12]	other results
COc1cc([C@H](O)[C@@H](CO)Oc2ccc(/C=C/C=O)cc2OC)ccc1O	> 50	Dose-dependent effect	Dose-dependent effect	36.6	Dose-dependent effect	33.6	> 50	Dose-dependent effect	Dose-dependent effect	> 50	Dose-dependent effect	> 50	Dose-dependent effect	38.5	Dose-dependent effect	35.2	Dose-dependent effect	32.5	Dose-dependent effect	Dose-dependent effect	IC50 [11]: 36.4 µM; IC50 [12]: > 50 µM
COc1cc([C@H](O)[C@@H](CO)Oc2ccc(C=O)cc2OC)ccc1O	> 50	Dose-dependent effect	Dose-dependent effect	> 50	Dose-dependent effect	> 50	> 50	Dose-dependent effect	Dose-dependent effect	> 50	Dose-dependent effect	39.1	Dose-dependent effect	> 50	Dose-dependent effect	> 50	Dose-dependent effect	> 50	Dose-dependent effect	Dose-dependent effect	IC50 [11]: > 50 µM; IC50 [12]: > 50 µM
COc1cc([C@@H](OC)[C@@H](CO)Oc2ccc(/C=C/C=O)cc2OC)ccc1O	> 50	Dose-dependent effect	Dose-dependent effect	25.5	Dose-dependent effect	> 50	> 50	Dose-dependent effect	Dose-dependent effect	> 50	Dose-dependent effect	2.71	Dose-dependent effect	40	Dose-dependent effect	31.9	Dose-dependent effect	26.4	Dose-dependent effect	Dose-dependent effect	IC50 [11]: > 50 µM; IC50 [12]: > 50 µM
COC/C=C/c1ccc(O[C@H](CO)[C@H](OC)c2ccc(O)c(OC)c2)c(OC)c1	> 50	Dose-dependent effect	Dose-dependent effect	27.4	Dose-dependent effect	> 50	> 50	Dose-dependent effect	Dose-dependent effect	> 50	Dose-dependent effect	> 50	Dose-dependent effect	> 50	Dose-dependent effect	36.4	Dose-dependent effect	36	Dose-dependent effect	Dose-dependent effect	IC50 [11]: > 50 µM; IC50 [12]: > 50 µM
COc1cc([C@@H](O)[C@@H](CO)Oc2ccc(/C=C/C=O)cc2OC)ccc1O	> 50	Dose-dependent effect	Dose-dependent effect	33.5	Dose-dependent effect	25.5	> 50	Dose-dependent effect	Dose-dependent effect	> 50	Dose-dependent effect	> 50	Dose-dependent effect	38.6	Dose-dependent effect	33	Dose-dependent effect	27.3	Dose-dependent effect	Dose-dependent effect	IC50 [11]: 34.2 µM; IC50 [12]: > 50 µM
O=c1[nH]cc(F)c(=O)[nH]1 [FLUOROURACIL]		Dose-dependent effect	Dose-dependent effect	10.1	Dose-dependent effect				Dose-dependent effect		Dose-dependent effect		Dose-dependent effect		Dose-dependent effect		Dose-dependent effect		Dose-dependent effect	Dose-dependent effect	
COc1cc([C@@H](O)[C@@H](CO)Oc2ccc(C=O)cc2OC)ccc1O	> 50	Dose-dependent effect	Dose-dependent effect	> 50	Dose-dependent effect	> 50	> 50	Dose-dependent effect	Dose-dependent effect	> 50	Dose-dependent effect	32.2	Dose-dependent effect	> 50	Dose-dependent effect	> 50	Dose-dependent effect	> 50	Dose-dependent effect	Dose-dependent effect	IC50 [11]: > 50 µM; IC50 [12]: > 50 µM
